From PubChem BioAssay (NCI)
“And” between values parts separate entries of the source, which are not always exact repeats. Identical values can stand only once.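 All cell lines were grown in 96-well plates and treated with compound for 48 hours. The concentration for 50% growth inhibition is given as GI50. TGI denotes the concentration required for complete inhibition of growth.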

Tests used:
Test in all cases: NCI-60 cell line screen, 48 h
OVCAR-3 ovarian = tested on: OVCAR-3 ovarian
HS 578T breast = tested on: HS 578T breast
SNB-19 CNS = tested on: SNB-19 CNS
CAKI-1 renal = tested on: CAKI-1 renal
HOP-62 NSCLC = tested on: HOP-62 NSCLC
DU-145 prostate = tested on: DU-145 prostate
IGROV1 ovarian = tested on: IGROV1 ovarian
SK-OV-3 ovarian = tested on: SK-OV-3 ovarian
EKVX NSCLC = tested on: EKVX NSCLC
RPMI-8226 leukemia = tested on: RPMI-8226 leukemia

SMILES | GI50 (OVCAR-3 ovarian) | TGI (OVCAR-3 ovarian) | GI50 (HS 578T breast) | TGI (HS 578T breast) | GI50 (SNB-19 CNS) | TGI (SNB-19 CNS) | GI50 (CAKI-1 renal) | TGI (CAKI-1 renal) | GI50 (HOP-62 NSCLC) | TGI (HOP-62 NSCLC) | GI50 (DU-145 prostate) | TGI (DU-145 prostate) | GI50 (IGROV1 ovarian) | TGI (IGROV1 ovarian) | GI50 (SK-OV-3 ovarian) | TGI (SK-OV-3 ovarian) | GI50 (EKVX NSCLC) | TGI (EKVX NSCLC) | GI50 (RPMI-8226 leukemia) | TGI (RPMI-8226 leukemia)
O=S(=O)(O)ONC1=NCCN1 | > 100000 nM | > 100 µM | 26.9 µM | > 100 µM | > 100 µM | > 100 µM | > 100000 nM | > 100 µM | > 100 µM | > 100 µM | > 100 µM | > 100 µM | > 100 µM | > 100 µM | > 100 µM | > 100 µM | > 100 µM | > 100 µM | 46.1 µM | > 100 µM
NS(=O)(=O)c1ccc(NC(=O)Nc2ccccc2F)cc1 | – | > 100 µM | – | > 100 µM | – | > 100 µM | – | > 100 µM | – | > 100 µM | – | > 100 µM | – | > 100 µM | – | > 100 µM | – | > 100 µM | – | > 100 µM
CCc1nc(-n2c(-c3ccccc3)nc3ccccc3c2=O)nc(N)c1-c1ccc(Cl)cc1 | 554 nM | 30.7 µM | 34.8 µM | > 100 µM | 6.46 µM | > 100 µM | 14700 nM | 41 µM | 14.7 µM | > 100 µM | 72.6 µM | > 100 µM | 27.1 µM | > 100 µM | – | – | > 100 µM | > 100 µM | 50.3 µM | > 100 µM
Oc1ccc(Cl)cc1-c1cc(-c2ccc(F)cc2)n[nH]1 | 1390 nM | 3.53 µM | 1.71 µM | 6.65 µM | 2.27 µM | 8.27 µM | 1770 nM | 9.14 µM | 2.98 µM | 10.9 µM | 3.04 µM | 10.8 µM | 1.23 µM | 8.44 µM | 1.99 µM | 5.21 µM | 1.4 µM | 14 µM | 1.36 µM | 4.58 µM
N#Cc1c2c(c(-c3cccs3)n(C3OC(CO)C(O)C(O)C3O)c1=S)CCc1ccccc1-2 (configuration not stated) | – | > 100 µM | – | > 100 µM | – | > 100 µM | – | > 100 µM | 14.9 µM and 38.5 µM | > 100 µM | – | > 100 µM | – | > 100 µM | – | > 100 µM | – | > 100 µM | 9.27 µM and > 23.7 µM | > 100 µM
C[N+](C)([O-])CCCNc1ccnc2cccc([N+](=O)[O-])c12 | – | 44.9 µM | – | 77.6 µM | – | > 100 µM | – | > 100 µM | – | > 100 µM | – | 44.1 µM | – | > 100 µM | – | > 100 µM | – | > 100 µM | – | 57.6 µM
CC(=O)N1CCN(CCOc2ccc(C3CCN(C4=Nn5c(nnc5C(F)(F)F)CC4)CC3)cc2)CC1 | 20800 nM | > 100 µM | 5.43 µM | > 100 µM | 22.4 µM | > 100 µM | 3270 nM | > 100 µM | 11.5 µM | > 100 µM | 63 µM | > 100 µM | 17.4 µM | > 100 µM | 21.1 µM | > 100 µM | 14.7 µM | > 100 µM | 4.74 µM | 79.7 µM
CCOC(=O)Cc1csc(NC(=O)COC(=O)c2ccc(OC)cc2)n1 | 22400 nM | 46.3 µM | > 100 µM | > 100 µM | > 100 µM | > 100 µM | > 100000 nM | > 100 µM | > 78.8 µM | > 100 µM | 57.2 µM | > 100 µM | 2.99 µM | 8.77 µM | > 75.4 µM | > 100 µM | 52.9 µM | > 100 µM | 12.5 µM | 33.5 µM
O=C(O)C(=O)CBr | > 21100 nM and 3610 nM | > 40.2 µM and 13 µM | > 100 µM and 29.2 µM | > 100 µM and 72.4 µM | > 100 µM | > 100 µM | > 32500 nM and 14700 nM | > 47.3 µM and 28 µM | > 100 µM and 19.3 µM | > 100 µM and 38.1 µM | > 61.9 µM and 17 µM | > 100 µM and 31.4 µM | 33.5 µM and 62.1 µM | > 100 µM | > 100 µM and 19.7 µM | > 100 µM and 36 µM | > 100 µM and 18.9 µM | > 100 µM and 36.7 µM | > 48.9 µM and 26.8 µM | > 73.5 µM and 55.6 µM
O=C(CCl)Nc1cc(O)c2c(c1)C(=O)c1cccc(O)c1C2=O | 1230 nM | 2.49 µM | 2.46 µM | 10.6 µM | 1.87 µM | 4.15 µM | 1560 nM | 2.93 µM | 1.71 µM | 3.38 µM | 1.56 µM | 2.94 µM | 0.942 µM | 3.13 µM | 2.61 µM | 18.1 µM | 1.77 µM | 4.52 µM | 2.17 µM | 6.39 µM
O=C(c1ccccc1)C1C(C(=O)c2ccccc2)C(c2ccccc2)N(c2ccccc2)C1c1ccccc1 (configuration not stated) | – | > 100 µM | – | > 100 µM | – | > 100 µM | – | > 100 µM | – | > 100 µM | – | > 100 µM | – | > 100 µM | – | – | – | > 100 µM | – | > 100 µM
O=C(Nc1ccc(I)cc1F)c1cc(I)ccc1O | 714 nM | > 100 µM | 0.617 µM | 3.95 µM | 0.664 µM | > 100 µM | 492 nM | 4.11 µM | 0.815 µM | 3.4 µM | 0.873 µM | > 100 µM | 0.611 µM | > 100 µM | 2.56 µM | > 100 µM | 0.737 µM | 7.17 µM | 0.375 µM | 1.64 µM
CO[C@H](C(=O)O)[C@@H]1Cc2cc3cc(OC4CC(OC5CC(O)C(O)C(C)O5)C(O)C(C)O4)c(C)c(O)c3c(O)c2C(=O)[C@H]1OC1CC(OC2CC(OC3CC(C)(O)C(O)C(C)O3)C(O)C(C)O2)C(O)C(C)O1 (some centres not stated) | 280 nM | 2.04 µM | 0.161 µM | > 32.5 µM | 0.201 µM | > 32.5 µM | 598 nM | > 32.5 µM | 0.211 µM | > 32.5 µM | 0.364 µM | > 32.5 µM | 0.231 µM | > 32.5 µM | 0.445 µM | > 32.5 µM | 0.57 µM | > 32.5 µM | 0.16 µM | 2.23 µM
c1ccc2nc(OCCN3CC3)ccc2c1 | 6290 nM | 22.1 µM | 20.3 µM | 62.2 µM | 15.7 µM | 43.6 µM | 9200 nM | 28.8 µM | 15.2 µM | 34.1 µM | 14.8 µM | 28 µM | 2.24 µM | 10.8 µM | 16.8 µM | 33.6 µM | 12 µM | 33.4 µM | 3.94 µM | 26.7 µM
O=C(Nc1cc(-c2cccnc2)nc(NCCCN2CCOCC2)n1)c1cc(Br)cc(C(F)(F)F)c1 | 3700 nM | 12.8 µM | 2.71 µM | 8.51 µM | 2.5 µM | 5.75 µM | 2530 nM | 10.7 µM | 2.71 µM | 9.98 µM | 6.7 µM | 19.1 µM | 4.67 µM | 19.5 µM | 7.26 µM | 19.9 µM | 2.72 µM | 14.4 µM | 3.15 µM | 9.69 µM
COC(=O)[C@]12CC[C@@H](C)[C@H](C)[C@@H]1C1=CC[C@@H]3[C@@]4(C)CC(=O)[C@H](OC(=O)c5ccco5)[C@@]5(C)COC(=C45)C[C@@]3(C)[C@]1(C)CC2 | 2740 nM | > 100 µM | > 100 µM | > 100 µM | 3.57 µM | > 100 µM | 729 nM | > 100 µM | 17.6 µM | > 100 µM | 9.04 µM | > 100 µM | 3.71 µM | > 100 µM | 4.67 µM | > 100 µM | 2.09 µM | > 100 µM | 0.584 µM | > 100 µM
COc1ccc(-c2c(N)n[nH]c2-c2cc(OC)c(OC)c(OC)c2)cc1 | 40 nM | 0.187 µM | 0.0782 µM | 0.593 µM | 0.403 µM | > 100 µM | 381 nM | > 100 µM | 0.387 µM | > 100 µM | 0.272 µM | – | 0.769 µM | 60.5 µM | 0.211 µM | 52.4 µM | 3.86 µM | > 100 µM | 0.331 µM | 22.5 µM
Cc1ccc2c(c1)C(=O)c1c-2n(CCCN=[N+]=[N-])c(=O)c2cc([N+](=O)[O-])ccc12 | > 100000 nM | > 100 µM | > 100 µM | > 100 µM | > 100 µM | > 100 µM | 53900 nM | > 100 µM | 71.7 µM | > 100 µM | > 100 µM | > 100 µM | 19.2 µM | > 100 µM | – | – | > 100 µM | > 100 µM | 21.3 µM | > 100 µM
CN1CCN(CCOc2ccc(-c3cnc4c(-c5ccc(F)cc5)cnn4c3)cc2)CC1 | 1680 nM | 3.35 µM | 1.49 µM | 4.53 µM | 1.66 µM | 3.39 µM | 1520 nM | 2.89 µM | 1.85 µM | 3.81 µM | 1.64 µM | 3.16 µM | 1.63 µM | 3.3 µM | – | – | 1.79 µM | 3.55 µM | 1.67 µM | 4.67 µM
Cc1cc(S(=O)(=O)Nc2nc3cc(Cl)ccc3o2)c(SCc2ccccc2)cc1Cl | 22000 nM | 45.6 µM | 21 µM | 44.3 µM | 21.2 µM | 46.9 µM | 22900 nM | 49 µM | 21.9 µM | 40 µM | 22.4 µM | 45.9 µM | 19.8 µM | 44.3 µM | – | – | 17.8 µM | 37 µM | 20.3 µM | 66.2 µM
